Literature values, collected in US8785427B2, “Enzymatic process for obtaining 17 alpha-monoesters of cortexolone and/or its 9,11-dehydroderivatives” (Cosmo Dermatos Srl, priority 2007, dated 2014).

Conditions: both in vitro and in vivo on the animal; described in EP1421099

## CCCC(=O)O[C@]1(C(=O)CO)CC[C@H]2[C@@H]3CCC4=CC(=O)CC[C@]4(C)C3=CC[C@@]21C [9,11-dehydro-cortexolone-17-α-butanoate, 9,11-Dehydro-Cortexolone-17α-Butanoate]
  antiandrogenic biological activity: high antiandrogenic biological activity

## CCC(=O)O[C@]1(C(=O)CO)CC[C@H]2[C@@H]3CCC4=CC(=O)CC[C@]4(C)[C@H]3CC[C@@]21C [cortexolone 17α-propionate]
  antiandrogenic biological activity: high antiandrogenic biological activity
